# Source: US4049802A (Research Corporation, priority 1975, dated 1977)
# Like-named read-outs stand apart in the source and are kept apart here.
# What was measured:
# [1] = Minimum inhibitory concentration (growth at drug concentrations) and effect of para-aminobenzoic acid (PABA), Table II; assay type: cell-based
# Pseudomonas = assay: Minimum inhibitory concentrations vs Pseudomonas, Table V; assay type: cell-based
Compound,Growth (minimum inhibitory concentration series) ([1]; 0.05 μ mole/ml drug),Growth (minimum inhibitory concentration series) ([1]; 0.1 μ mole/ml drug),Growth (minimum inhibitory concentration series) ([1]; 0.5 μ mole/ml drug),Growth (minimum inhibitory concentration series) ([1]; 1.0 μ mole/ml drug),Growth (minimum inhibitory concentration series) ([1]; 0.4 μ mole/ml drug),"Growth, drug + PABA ([1]; 0.5 μ mole/ml drug + PABA 0.05)",Growth (minimum inhibitory concentration series) ([1]; 0.6 μ mole/ml drug),Growth (minimum inhibitory concentration series) ([1]; 0.8 μ mole/ml drug),"Growth, drug + PABA ([1]; 1.0 μ mole/ml drug + PABA 0.1)",Growth (minimum inhibitory concentration series) ([1]; 2.0 μ mole/ml drug),"Growth, drug + PABA ([1]; 2.0 μ mole/ml drug + PABA 0.01)","Growth, drug + PABA ([1]; 2.0 μ mole/ml drug + PABA 0.1)","Growth, drug + PABA ([1]; 2.0 μ mole/ml drug + PABA 0.2)",Minimum Inhibitory Concentration vs Pseudomonas (Pseudomonas; listed as Na Sulfadiazine) [μM/L],PAB to Block (Pseudomonas; listed as Na Sulfadiazine),PAB to Block (Pseudomonas),"MIC (Pseudomonas; Pseudomonas, read-out: Minimum Inhibitory Concentration vs Pseudomonas) [µM]"
"CC(=O)[O-].CC(=O)[O-].[Zn+2] [Zinc Acetate, zinc acetate]",+,+,+,+,,,,,,,,,,,,,
"Nc1ccc(S(=O)(=O)Nc2ncccn2)cc1 [Sodium Sulfadiazine, sodium sulfadiazine]",,+,+,-,+,+,+,-,+,-,+,+,+,80,1/200,,
NCc1ccc(S(N)(=O)=O)cc1 [Sulfamylon],,,,,,,,,,,,,,,,neg.,500
